Patent US8859535B2, “Hydroxy substituted isoquinolinone derivatives” (Novartis AG, priority 2011, dated 2014)

Key:
Assay type in all cases: binding
[1] = molecular target: T1, human MDM2 protein (amino acids 2-188) (Homo sapiens, UniProt Q00987); assay: p53-MDM2 TR-FRET assay (p53-MDM2 Assay 1); conditions: 1.25 nM MDM2-biotinylated, 10 nM Cy5-p53 peptide; read-out: IC50 (μM) of p53-Hdm2 inhibition (TR-FRET) Assay 1
T1 construct: human MDM2 protein (amino acids 2-188); made in house
Method in brief: (§1)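 Peptide displacement read as 665/620 nm TR-FRET ratio (excitation 340 nm) after 15 min room temperature with 10 nM Cy5-p53 aa18-26, following 15 min preincubation of Eu-streptavidin (0.625 nM) with biotinylated MDM4 aa 2-185 (2.5 nM) or MDM2 aa 2-188 (1.25 nM); IC50 curve-fitted. MDM2 Assay 2: MDM2 and Eu-streptavidin each 0.1 nM.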

[2] = molecular target: T1, human MDM2 protein (amino acids 2-188); assay: p53-MDM2 TR-FRET assay, modified (p53-MDM2 Assay 2); conditions: 0.1 nM MDM2, 0.1 nM Europium labeled streptavidin; read-out: IC50 (nM) of p53-Hdm2 inhibition (TR-FRET) Assay 2
Procedure: Time Resolved Fluorescence Energy Transfer (TR-FRET) Assay
The inhibition of p53-MDM2 and p53-MDM4 interactions is measured by time resolved fluorescence energy transfer (TR-FRET). Fluorescence energy transfer (or Foerster resonance energy transfer) describes an energy transfer between donor and acceptor fluorescent molecules. For this assay, human MDM2 protein (amino acids 2-188) and human MDM4 protein (amino acids 2-185), tagged with a C-terminal biotin moiety, are used in combination with a Europium labeled streptavidin (Perkin Elmer, Inc., Waltham, Mass., USA) serving as the donor fluorophore. The p53 derived, Cy5 labeled peptide Cy5-TFSDLWKLL (p53 aa18-26) is the energy acceptor. Upon excitation of the donor molecule at 340 nm, binding interaction between MDM2 or MDM4 and the p53 peptide induces energy transfer and enhanced response at the acceptor emission wavelength at 665 nm. Disruption of the formation of the p53-MDM2 or p53-MDM4 complex due to an inhibitor molecule binding to the p53 binding site of MDM2 or MDM4 results in increased donor emission at 620 nm. The ratiometric FRET assay readout is calculated from the raw data of the two distinct fluorescence signals measured in time resolved mode (fluorescence 665 nm/fluorescence 620 nm×1000).
After addition of 1.25 nM MDM2-biotinylated or 2.5 nM MDM4-biotinylated (internal preparations), and 0.625 nM Europium labeled streptavidin (Perkin Elmer), the solution is pre-incubated for 15 minutes at room temperature, then 10 nM Cy5-p53 peptide (internal preparation) is added before an incubation at room temperature for 15 minutes prior to reading the plate. For measurement of samples, a Victor II microplate reader (Perkin Elmer) is used with the following settings: Excitation 340 nm, Emission Donor 620 nm and Emission Acceptor 665 nm. IC50 values are calculated by curve fitting using XLfit. If not specified, reagents are purchased from Sigma-Aldrich Chemie GmBH, Buchs, Switzerland.
This assay was used to evaluate compounds displaying inhibition of p53-MDM2 interaction and p53-MDM4 interaction at IC50s of 0.005 to 50 μM (p53-MDM2 Assay 1 and p53-MDM4 Assay 1, respectively). For selected compounds displaying IC50s between […] on MDM2, a slightly modified assay is used with the following adaptations: 0.1 nM MDM2, 0.1 nM Europium labeled streptavidin and Tecan genios Pro is used as a microplate reader for the fluorescence measurements (p53-MDM2 Assay 2).

[3] = molecular target: T2, human MDM4 protein (amino acids 2-185) (Homo sapiens, UniProt O15151); assay: p53-MDM4 TR-FRET assay (p53-MDM4 Assay 1); conditions: 2.5 nM MDM4-biotinylated, 10 nM Cy5-p53 peptide; read-out: IC50 (μM) of p53-Hdm4 inhibition (TR-FRET) Assay 1
T2 construct: human MDM4 protein (amino acids 2-185); made in house
T2 sequence (O15151 2-185): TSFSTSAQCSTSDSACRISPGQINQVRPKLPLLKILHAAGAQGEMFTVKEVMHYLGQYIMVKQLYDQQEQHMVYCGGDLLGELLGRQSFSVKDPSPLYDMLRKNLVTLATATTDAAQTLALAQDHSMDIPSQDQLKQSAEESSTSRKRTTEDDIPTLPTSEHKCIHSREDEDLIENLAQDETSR
Method in brief: as §1

T1 sequence (Q00987 2-188): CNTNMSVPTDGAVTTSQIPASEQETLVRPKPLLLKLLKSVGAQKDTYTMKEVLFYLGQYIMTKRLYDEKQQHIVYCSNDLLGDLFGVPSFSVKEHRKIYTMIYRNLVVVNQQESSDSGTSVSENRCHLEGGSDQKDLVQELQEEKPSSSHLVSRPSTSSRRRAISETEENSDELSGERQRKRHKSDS

IC50 [1] | IC50 [2] | IC50 [3] | SMILES
0.0017 µM | 2.34 nM | 1.91 µM | COC(=O)N1CCC(C(C)(O)c2ccc(N3C(=O)Cc4cc(OC)c(OC(C)C)cc4[C@@H]3c3ccc(Cl)cc3)cc2)CC1 (stereo partly drawn) [Example 76, 4-(1-{4-[(S)-1-(4-Chloro-phenyl)-7-isopropoxy-6-methoxy-3-oxo-3,4-dihydro-1H-isoquinolin-2-yl]-phenyl}-1-hydroxy-ethyl)-piperidine-1-carboxylic acid methyl ester]
0.0027 µM | 2.3 nM | 3.35 µM | COc1cc2c(cc1OC(C)C)[C@H](c1ccc(Cl)cc1)N(c1ccc(C(C)(O)C3CCN(CCO)CC3)cc1)C(=O)C2 (stereo partly drawn) [Example 93, (S)-1-(4-Chloro-phenyl)-2-(4-{1-hydroxy-1-[1-(2-hydroxy-ethyl)-piperidin-4-yl]-ethyl}-phenyl)-7-isopropoxy-6-methoxy-1,4-dihydro-2H-isoquinolin-3-one]
0.0049 µM | 1.97 nM | 8.84 µM | COc1cc2c(cc1OC(C)C)[C@H](c1ccc(Cl)cc1)N(c1ccc(C(C)(O)C3CC4CCC(C3)N4CC(F)(F)F)cc1)C(=O)C2 (stereo partly drawn) [Example 106, (S)-1-(4-Chloro-phenyl)-2-(4-{1-hydroxy-1-[8-(2,2,2-trifluoro-ethyl)-8-aza-bicyclo[3.2.1]oct-3-yl]-ethyl}-phenyl)-7-isopropoxy-6-methoxy-1,4-dihydro-2H-isoquinolin-3-one]
0.0028 µM | 1.55 nM | 2.48 µM | COc1cc2c(cc1OC(C)C)[C@H](c1ccc(Cl)cc1)N(c1ccc(C(C)(O)C3CC4CCC(C3)N4S(C)(=O)=O)cc1)C(=O)C2 (stereo partly drawn) [Example 107, (S)-1-(4-Chloro-phenyl)-2-{4-[1-hydroxy-1-(8-methanesulfonyl-8-aza-bicyclo[3.2.1]oct-3-yl)-ethyl]-phenyl}-7-isopropoxy-6-methoxy-1,4-dihydro-2H-isoquinolin-3-one]
0.0027 µM | 2.07 nM | 1.99 µM | COc1cc2c(cc1OC(C)C)[C@H](c1ccc(Cl)cc1)N(c1ccc(C(C)(O)C3CC4CCC(C3)N4C(=O)N(C)C)cc1)C(=O)C2 (stereo partly drawn) [Example 108, 3-(1-{4-[(S)-1-(4-Chloro-phenyl)-7-isopropoxy-6-methoxy-3-oxo-3,4-dihydro-1H-isoquinolin-2-yl]-phenyl}-1-hydroxy-ethyl)-8-aza-bicyclo[3.2.1]octane-8-carboxylic acid dimethylamide]
0.0021 µM | 1.5 nM | 2.55 µM | COc1cc2c(cc1OC(C)C)[C@H](c1ccc(Cl)cc1)N(c1ccc(C(C)(O)C3CC4CCC(C3)N4C=O)cc1)C(=O)C2 (stereo partly drawn) [Example 111, 3-(1-{4-[(S)-1-(4-Chloro-phenyl)-7-isopropoxy-6-methoxy-3-oxo-3,4-dihydro-1H-isoquinolin-2-yl]-phenyl}-1-hydroxy-ethyl)-8-aza-bicyclo[3.2.1]octane-8-carbaldehyde]
0.0048 µM | 2.52 nM | 4.45 µM | COc1cc2c(cc1OC(C)C)[C@H](c1ccc(Cl)cc1)N(c1ccc(C(C)(O)C3CC4CCC(C3)N4CCO)cc1)C(=O)C2 (stereo partly drawn) [Example 113, (S)-1-(4-Chloro-phenyl)-2-(4-{1-hydroxy-1-[8-(2-hydroxy-ethyl)-8-aza-bicyclo[3.2.1]oct-3-yl]-ethyl}-phenyl)-7-isopropoxy-6-methoxy-1,4-dihydro-2H-isoquinolin-3-one]
0.0045 µM | 4.76 nM | 4.92 µM | COc1cc2c(cc1OC(C)C)[C@H](c1ccc(Cl)cc1)N(c1ccc(C(C)(O)C3CC4CCC(C3)N4C(=O)CO)cc1)C(=O)C2 (stereo partly drawn) [Example 114, (S)-1-(4-Chloro-phenyl)-2-(4-{1-hydroxy-1-[8-(2-hydroxy-acetyl)-8-aza-bicyclo[3.2.1]oct-3-yl]-ethyl}-phenyl)-7-isopropoxy-6-methoxy-1,4-dihydro-2H-isoquinolin-3-one]
0.0051 µM | 5.11 nM | 5.39 µM | COc1cc2c(cc1OC(C)C)[C@H](c1ccc(Cl)cc1)N(c1ccc(C(C)(O)C3CC4CCC(C3)N4C3COC3)cc1)C(=O)C2 (stereo partly drawn) [Example 115, (S)-1-(4-Chloro-phenyl)-2-{4-[1-hydroxy-1-(8-oxetan-3-yl-8-aza-bicyclo[3.2.1]oct-3-yl)-ethyl]-phenyl}-7-isopropoxy-6-methoxy-1,4-dihydro-2H-isoquinolin-3-one]

The next lines start with the molecule.

SMILES | IC50 [1] | IC50 [2] | IC50 [3]
CC[C@@H](C)Oc1cc2c(cc1OC)CC(=O)N(c1ccc(C(C)(O)C3CCN(C(C)=O)CC3)cc1)[C@H]2c1ccc(Cl)cc1 (stereo partly drawn) [Example 52, (S)-2-{4-[1-(1-Acetyl-piperidin-4-yl)-1-hydroxy-ethyl]-phenyl}-7-((R)-sec-butoxy)-1-(4-chloro-phenyl)-6-methoxy-1,4-dihydro-2H-isoquinolin-3-one] | 0.0018 µM | 1.98 nM | 2.32 µM
COc1cc2c(cc1OC(C)C)[C@H](c1ccc(Cl)cc1)N(c1ccc(C(C)(O)C3CCN(C4COC4)CC3)cc1)C(=O)C2 (stereo partly drawn) [Example 96, (S)-1-(4-Chloro-phenyl)-2-{4-[1-hydroxy-1-(1-oxetan-3-yl-piperidin-4-yl)-ethyl]-phenyl}-7-isopropoxy-6-methoxy-1,4-dihydro-2H-isoquinolin-3-one] | 0.0021 µM | 1.35 nM | 2.18 µM
COc1cc2c(cc1OC(C)C)[C@H](c1ccc(Cl)cc1)N(c1ccc(C(C)(O)C3CCN(C4CCC4)CC3)cc1)C(=O)C2 (stereo partly drawn) [Example 97, (S)-1-(4-Chloro-phenyl)-2-{4-[1-(1-cyclobutyl-piperidin-4-yl)-1-hydroxy-ethyl]-phenyl}-7-isopropoxy-6-methoxy-1,4-dihydro-2H-isoquinolin-3-one] | 0.0025 µM | 2.4 nM | 2.43 µM
COc1cc2c(cc1OC(C)C)[C@H](c1ccc(Cl)cc1)N(c1ccc(C(C)(O)C3CC4CCC(C3)N4C)cc1)C(=O)C2 (stereo partly drawn) [Example 105, (S)-1-(4-Chloro-phenyl)-2-{4-[1-hydroxy-1-(8-methyl-8-aza-bicyclo[3.2.1]oct-3-yl)-ethyl]-phenyl}-7-isopropoxy-6-methoxy-1,4-dihydro-2H-isoquinolin-3-one] | 0.0043 µM | 2.25 nM | 4.12 µM
CNC(=O)N1C2CCC1CC(C(C)(O)c1ccc(N3C(=O)Cc4cc(OC)c(OC(C)C)cc4[C@@H]3c3ccc(Cl)cc3)cc1)C2 (stereo partly drawn) [Example 109, 3-(1-{4-[(S)-1-(4-Chloro-phenyl)-7-isopropoxy-6-methoxy-3-oxo-3,4-dihydro-1H-isoquinolin-2-yl]-phenyl}-1-hydroxy-ethyl)-8-aza-bicyclo[3.2.1]octane-8-carboxylic acid methylamide] | 0.0024 µM | 1.7 nM | 2.5 µM
CCN1C2CCC1CC(C(C)(O)c1ccc(N3C(=O)Cc4cc(OC)c(OC(C)C)cc4[C@@H]3c3ccc(Cl)cc3)cc1)C2 (stereo partly drawn) [Example 112, (S)-1-(4-Chloro-phenyl)-2-{4-[1-(8-ethyl-8-aza-bicyclo[3.2.1]oct-3-yl)-1-hydroxy-ethyl]-phenyl}-7-isopropoxy-6-methoxy-1,4-dihydro-2H-isoquinolin-3-one] | 0.003 µM | 2.76 nM | 3.46 µM
COc1cc2c(cc1OC(C)C)[C@H](c1ccc(Cl)cc1)N(c1ccc(C(C)(O)C3CC4CCCC(C3)N4)cc1)C(=O)C2 (stereo partly drawn) [Example 116, (S)-2-{4-[1-(9-Aza-bicyclo[3.3.1]non-3-yl)-1-hydroxy-ethyl]-phenyl}-1-(4-chloro-phenyl)-7-isopropoxy-6-methoxy-1,4-dihydro-2H-isoquinolin-3-one] | 0.0036 µM | 3.4 nM | 3.93 µM
